According to patent US20220071924A1, “TREATMENT OF OCULAR DISEASES WITH OPHTHALMIC TAPINAROF COMPOSITIONS” (Sol-Gel Technologies Ltd., priority 2019, published 2022):

Test system: Demodex folliculorum
Assay: In vitro killing of live Demodex on epilated eyelashes, observed by light microscopy over 90 minutes
Settings: for Kill Rate: 90 min observation; for Average Time to Death: value 90 denotes no effect
Source text: In Vitro Activity of Tapinarof Based Formulations in Killing Demodex folliculorum The purpose of this study is to evaluate the effectiveness of a composition comprising Tapinarof in killing Demodex for clinical treatment. […] Following informed consent, one to four lashes with significant cylindrical dandruff were selected for epilation. Lashes were firmly grasped near the base and gently teased out with a slow circular motion to prevent cylindrical dandruff and Demodex from being left behind on the lid margin. Epilated lashes were then placed onto a glass slide and the number of live organisms under light microscopy was then recorded. Lashes with live Demodex were then included in the study. Each lash obtained was then assigned to one of 13 study reagents (Table 1). […] Observation of the study material with the Demodex took place over 90 minutes with checks under light microscopy every five minutes for cessation of Demodex activity. Organism death was recorded when all rotary movement of Demodex appendages ceased. At least five lashes with live Demodex were evaluated for each reagent. Results were recorded in Microsoft Excel and statistical analysis for significant differences in average time to death were done with two-tailed t-test using the same software (Table 1). The value 90 was used to denote no effect.

[1] = tapinarof 0.1% in 50% isopropyl alcohol
[2] = tapinarof 0.5% in 50% isopropyl alcohol
[3] = tapinarof 1% in 50% isopropyl alcohol
[4] = reagent at 50%, checks every 5 min
[5] = reagent at 80%, checks every 5 min

Structure (SMILES)	Kill Rate [4]	Average Time to Death (reagent at 50%)	Kill Rate [5]	Average Time to Death (reagent at 80%)	further results
CC(C)c1c(O)cc(/C=C/c2ccccc2)cc1O [Tapinarof, 3,5-dihydroxy-4-isopropyl-trans-stilbene]					Kill Rate [1]: 8%; Average Time to Death [1]: 80 min; Kill Rate [2]: 29%; Average Time to Death [2]: 10.82 min; Kill Rate [3]: 33%; Average Time to Death [3]: 60 min; in vitro killing effect against Demodex mites (in words) (tapinarof at the 0.1% concentration (p=0.34)): a significant effect was not observed; in vitro killing effect against Demodex mites (in words) (tapinarof at the 0.5% and 1% concentrations): moderate in vitro killing effect
CC#N [Acetonitrile]	88%	31.43 min	100%	5.83 min	
CCO [Ethanol]	100%	33.64 min			
CC(C)=O [Acetone]	33%	82.5 min	29%	9.7 min	
CC(C)O [Isopropyl alcohol]	0%	>90 min			
CCOCCOCCO [Transcutol]	100%	35 min	100%	15 min	
